What was measured:
[1] = system: E. coli S30 extract (bacterial protein synthesis); assay: E. coli S30 extract coupled transcription-translation luciferase assay (inhibition of bacterial protein synthesis); type: biochemical; conditions: class by IC50 or % inhibition @ 1 μM, read-out: S30 IC50 (μM/% inhib.)
Procedure, shortened: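 Luciferase luminescence quantified inhibition of protein synthesis relative to water controls, with no-DNA reactions giving background. Compounds in 2-fold serial dilution (8 levels) were incubated 1 hour at 37 °C with E. coli S30 extract, amino acids and pBESTluc plasmid, then chilled to stop.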

[2] = target: Rabbit Reticulocyte Lysate (eukaryotic protein synthesis); assay: Rabbit reticulocyte lysate luciferase assay (inhibition of eukaryotic protein synthesis); type: biochemical; conditions: class by IC50 or % inhibition @ 1 μM, read-out: Rabbit reticulocyte IC50 (μM/% inhib.)
Procedure, shortened: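 Percent inhibition calculated against water-only controls from luminescence; background set by lysate lacking RNA. Compounds, 8-point 2-fold titration, incubated 90 minutes at 30° C with nuclease-treated rabbit reticulocyte lysate programmed with luciferase control RNA plus complete amino acids.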

A. baumannn (Ab) = assay: Broth microdilution minimum inhibitory concentration (MIC), CLSI; type: cell-based; conditions: Acinetobacter baumannii, read-out: Ab + bicarb MIC
Procedure, shortened: (§1)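 Modified CLSI method: CAMHB (± bicarbonate 6.25/25 mM or 0-50% human serum), 8-point two-fold series, triplicates, 5×10^4 CFU/well.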

E. coli (Ec) = assay: as above; type: cell-based; conditions: Escherichia coli, growth medium supplemented with sodium bicarbonate, read-out: E. coli + bicarb MIC
Procedure, shortened: as §1

E. faecalis (Ef) = assay: as above; type: cell-based; conditions: Enterococcus faecalis, growth medium supplemented with sodium bicarbonate, read-out: Ef + bicarb MIC
Procedure, shortened: as §1

P. aeruginosa (Pa) = assay: as above; type: cell-based; conditions: Pseudomonas aeruginosa, growth medium supplemented with sodium bicarbonate, read-out: Pa MIC + bicarb
Procedure, shortened: as §1

S. aureus (Sa) = assay: as above; type: cell-based; conditions: Staphylococcus aureus, growth medium supplemented with sodium bicarbonate, read-out: Sa + bicarb MIC
Procedure, shortened: as §1

Structure (SMILES) | IC50 [1] [µM] | IC50 [2] [µM] | MIC (A. baumannn (Ab)) [µg/mL] | MIC (E. coli (Ec)) [µg/mL] | MIC (E. faecalis (Ef)) [µg/mL] | MIC (P. aeruginosa (Pa)) [µg/mL] | MIC (S. aureus (Sa)) [µg/mL]
CC(C)(N)C(=O)N1CCN(C(=O)Nc2ccn(-c3ccc(CCN4CC5CC5(CN)C4)c(F)c3)c(=O)n2)CC1 (stereo not drawn) [Compound 123] | < 0.5 | ≥ 1 | > 32 | < 8 | < 8 | > 32 | < 8
CC(Cc1ccc(-n2ccc(NC(=O)N3CCN(C(=O)C(C)(C)N)C[C@H]3C)nc2=O)cc1)N1C[C@@H]2[C@@H](CN)[C@@H]2C1 (stereo partly drawn) [Compound 124] | < 0.5 | ≥ 1 | > 32 | < 8 | < 8 | 8 to 32 | < 8
CC(Cc1ccc(-n2ccc(NC(=O)N3CCN(C(=O)[C@@](C)(N)CO)CC3)nc2=O)cc1)N1C[C@@H]2[C@@H](CN)[C@@H]2C1 (stereo partly drawn) [Compound 125] | < 0.5 | ≥ 1 | > 32 | < 8 | < 8 | 8 to 32 | < 8
Cc1cc(-n2ccc(NC(=O)N3CCN(C(=O)C(C)(C)N)CC3)nc2=O)ccc1CCN1C[C@@H]2[C@@H](CN)[C@@H]2C1 [Compound 126] | < 0.5 | ≥ 1 | 8 to 32 | < 8 | 8 to 32 | 8 to 32 | < 8
CC(C)(N)C(=O)N1CCN(C(=O)Nc2ccn(-c3ccc(CCN4C[C@@H]5[C@@H](CN)[C@@H]5C4)c(F)c3)c(=O)n2)CC1 [Compound 127] | < 0.5 | ≥ 1 | > 32 | < 8 | 8 to 32 | 8 to 32 | 8 to 32
Cc1cc(-n2ccc(NC(=O)N3CCN(C(=O)[C@@](C)(N)CO)CC3)nc2=O)ccc1CCN1CC2CC2(CN)C1 (stereo partly drawn) [Compound 128] | < 0.5 | ≥ 1 | > 32 | < 8 | 8 to 32 | > 32 | < 8
Cc1cc(-n2ccc(NC(=O)N3CCN(C(=O)[C@@](C)(N)CO)CC3)nc2=O)ccc1CCN1C[C@@H]2[C@@H](CN)[C@@H]2C1 [Compound 129] | < 0.5 | ≥ 1 | > 32 | < 8 | 8 to 32 | 8 to 32 | < 8
Cc1cc(-n2ccc(NC(=O)N3CCN(C(=O)C(C)(C)N)CC3)nc2=O)ccc1CCN1CC2CC2(CN)C1 (stereo not drawn) [Compound 130] | < 0.5 | ≥ 1 | 8 to 32 | < 8 | < 8 | 8 to 32 | < 8
CC(C)(N)C(=O)N1CCN(C(=O)Nc2ccn(-c3ccc(CCN4CC5CC5(CN)C4)c(C(F)(F)F)c3)c(=O)n2)CC1 (stereo not drawn) [Compound 131] | < 0.5 | ≥ 1 | 8 to 32 | < 8 | < 8 | > 32 | < 8
COc1cc(-n2ccc(NC(=O)N3CCN(C(=O)C(C)(C)N)CC3)nc2=O)ccc1CCN1C[C@@H]2[C@@H](CN)[C@@H]2C1 [Compound 132] | < 0.5 | ≥ 1 | > 32 | < 8 | 8 to 32 | 8 to 32 | 8 to 32
COc1cc(-n2ccc(NC(=O)N3CCN(C(=O)C(C)(C)N)CC3)nc2=O)ccc1CCN1CC2CC2(CN)C1 (stereo not drawn) [Compound 133] | < 0.5 | ≥ 1 | > 32 | < 8 | 8 to 32 | > 32 | 8 to 32
CC(N)[C@H]1[C@@H]2CN(CCc3ccc(-n4ccc(NC(=O)N5CCN(C(=O)C(C)(C)N)CC5)nc4=O)cc3)C[C@@H]21 (stereo partly drawn) [Compound 134] | < 0.5 | ≥ 1 | 8 to 32 | < 8 | < 8 | 8 to 32 | < 8
CCC(Cc1ccc(-n2ccc(NC(=O)N3CCN(C(=O)C(C)(C)N)CC3)nc2=O)cc1)N1C[C@@H]2[C@@H](CN)[C@@H]2C1 (stereo partly drawn) [Compound 135] | < 0.5 | ≥ 1 | < 8 | < 8 | < 8 | < 8 | < 8
CC(Cc1ccc(-n2ccc(NC(=O)N3CCN(C(=O)C(C)(C)N)CC3)nc2=O)cc1)N1C[C@@H]2[C@H](C1)[C@H]2C(N)=O (stereo partly drawn) [Compound 136] | ≥ 1 | ≥ 1 | > 32 | > 32 | > 32 | > 32 | > 32
CC(C)(N)C(=O)N1CCN(C(=O)Nc2ccn(-c3ccc(C(N)C(=O)N4C[C@@H]5[C@@H](CN)[C@@H]5C4)cc3)c(=O)n2)CC1 (stereo partly drawn) [Compound 137] | 0.5 to 1 | ≥ 1 | > 32 | > 32 | > 32 | > 32 | > 32
CNC[C@@H]1[C@H]2CN(C(C)Cc3ccc(-n4ccc(NC(=O)N5CCN(C(=O)C(C)(C)N)CC5)nc4=O)cc3)C[C@@H]12 (stereo partly drawn) [Compound 138] | 0.5 to 1 | ≥ 1 | > 32 | < 8 | 8 to 32 | > 32 | < 8
CC(Cc1ccc(-n2ccc(NC(=O)N3CCN(C(=O)C(C)(C)N)CC3)nc2=O)cc1F)N1C[C@@H]2[C@@H](CN)[C@@H]2C1 (stereo partly drawn) [Compound 139] | < 0.5 | ≥ 1 | 8 to 32 | < 8 | < 8 | 8 to 32 | < 8
C[C@H](Cc1ccc(-n2ccc(NC(=O)N3CCN(C(=O)C(C)(C)N)CC3)nc2=O)cc1)N1C[C@@H]2[C@@H](CN)[C@@H]2C1 [Compound 140] | < 0.5 | ≥ 1 | 8 to 32 | < 8 | < 8 | 8 to 32 | < 8
C[C@@H](Cc1ccc(-n2ccc(NC(=O)N3CCN(C(=O)C(C)(C)N)CC3)nc2=O)cc1)N1C[C@@H]2[C@@H](CN)[C@@H]2C1 [Compound 141] | < 0.5 | ≥ 1 | 8 to 32 | < 8 | < 8 | < 8 | < 8
CC(C)(N)C(=O)N1CCN(C(=O)Nc2ccn(-c3cccc(CCN4CC5CC5(CN)C4)c3)c(=O)n2)CC1 (stereo not drawn) [Compound 142] | 0.5 to 1 | ≥ 1 | > 32 | < 8 | 8 to 32 | > 32 | 8 to 32
CC(C)(N)C(=O)N1CCN(C(=O)Nc2ccn(-c3cccc(CCN4C[C@@H]5[C@@H](CN)[C@@H]5C4)c3)c(=O)n2)CC1 [Compound 143] | 0.5 to 1 | ≥ 1 | > 32 | < 8 | 8 to 32 | > 32 | 8 to 32
CC(C)(N)C(=O)N1CCN(C(=O)Nc2ccn(-c3cccc(CCN4C[C@H]5C[C@@]5(N)C4)c3)c(=O)n2)CC1 [Compound 144] | ≥ 1 | ≥ 1 | > 32 | 8 to 32 | > 32 | > 32 | > 32
NC[C@@H]1[C@H]2CN(CCc3ccc(-n4ccc(NC(=O)N5CCC6(CCNC6)C5)nc4=O)cc3)C[C@@H]12 (stereo partly drawn) [Compound 145] | ≥ 1 | ≥ 1 | > 32 | < 8 | > 32 | > 32 | 8 to 32
NC[C@@H]1[C@H]2CN(CCc3ccc(-n4ccc(NC(=O)N5CCC6(CC5)CC(N)C6)nc4=O)cc3)C[C@@H]12 [Compound 146] | ≥ 1 | ≥ 1 | 8 to 32 | < 8 | < 8 | 8 to 32 | < 8
NC[C@@H]1[C@H]2CN(CCc3ccc(-n4ccc(NC(=O)N5CCC6(CC5)CNC6)nc4=O)cc3)C[C@@H]12 [Compound 147] | ≥ 1 | ≥ 1 | > 32 | < 8 | > 32 | > 32 | < 8
NC[C@@H]1[C@H]2CN(CCc3ccc(-n4ccc(NC(=O)N5CC6(CCC6N)C5)nc4=O)cc3)C[C@@H]12 (stereo partly drawn) [Compound 148] | ≥ 1 | ≥ 1 | > 32 | > 32 | > 32 | > 32 | > 32
NC[C@@H]1[C@H]2CN(CCc3ccc(-n4ccc(NC(=O)N5CC6(CC(N)C6)C5)nc4=O)cc3)C[C@@H]12 [Compound 149] | ≥ 1 | ≥ 1 | > 32 | 8 to 32 | > 32 | > 32 | 8 to 32

Source: patent publication US12692253B2, “Antimicrobial compounds and methods” (Curza Global, LLC, priority 2019, dated 2026)
